# Source: US20220002396A1, “METHODS OF TREATING CANCER WITH FARNESYLTRANSFERASE INHIBITORS” (Kura Oncology, Inc., priority 2018, published 2022)
# Columns and labels:
# Assay type in all cases: in vivo, human
# [1] = test system: advanced pancreatic adenocarcinoma; experiment: Randomized, double-blind, placebo-controlled study of gemcitabine+tipifarnib versus gemcitabine+placebo (Study INT-17 / INT-11)
# Procedure: In a randomized, double-blind, placebo-controlled study of gemcitabine+tipifarnib versus gemcitabine+placebo in patients with advanced pancreatic adenocarcinoma previously untreated with systemic therapy, tipifarnib (R115777) was administered at a dosage amount of 200 mg twice a day, orally, and continuously (Study INT-17). Gemcitabine was administered intravenously at a dosage amount of 1,000 mg/m(2) weekly x 7 for 8 weeks, then weekly x 3 every 4 weeks. 686 patients were enrolled. The median overall survival for the experimental arm was 193 v 182 days for the control arm (P=0.75).
# previously untreated AML = experiment: Tipifarnib monotherapy in elderly patients with previously untreated AML (CTEP-20), outcome by IGF1/CXCL12 expression
# Procedure: (§1) Gene expression profile (GEP) data generated using RNA-Seq and the Affymetrix U133A gene-chip of tumor samples from 71 patients enrolled in tipifarnib trials (CTEP-20, KO-TIP-002, KO-TIP-004) were analyzed with respect to study outcomes and complemented with analyses of mRNA expression in data sets from the cBioportal for Cancer Genomics. Clinical trial information: NCT00027872, NCT02464228, NCT02807272.
# Data from a study investigating tipifarnib monotherapy in elderly patients with previously untreated AML (CTEP-20) was examined in detail to determine the effect of the expression of CXCL12 and IGF1 on the response of the patients to tipifarnib.
# The effect of IGF1/CXCL12 co-expression on patient outcome in tipifarnib was examined. In previously untreated AML, 3 subsets of patients were identified with respect to IGF1/CXCL12 expression (FIG. 2A). These subsets were 1) high IGF1, high CXCL12 (left boxplots), 2) intermediate IGF1, low CXCL12 (middle boxplots), and 3) low IGF1, variable CXCL12, (right boxplots).
# When CXCL12 was at low levels and IGF1 was at intermediate levels, low CXCL12 levels translates to disease progression with 1 CR and 8 with progressive disease (PD) as outcome (FIG. 2C). When the IGF1 levels were low, CXCL12 had variable levels and six patients out of 15 experienced CR. […] Receiver-Operator-Characterisitics (ROC) curves for prediction of a CR in these patients confirmed that higher CXCL12 and lower IGF1 levels were predictive of complete responses in the AML patient population (FIG. 2E).
# breast cancer = experiment: Phase II study of tipifarnib in breast cancer patients (Study GBR-1)
# Procedure: Biomarkers in breast cancer were also examined for their relationship to CXCL12/IGF1 expression and to the activity of tipifarnib when administered to patients. A phase II study was performed with 76 patients treated with tipifarnib (Study GBR-1). Patients were tested for estrogen-receptor positivity (ER+) or negativity (ER−), progesterone receptor positivity (PGR+) or negativity (PGR−), and the presence or absence of TP53 mutation. Overall response rate in the study was 12%. Biomarker data was available for 41 patients.
# CMML = experiment: Tipifarnib-treated CMML subjects with pre-treatment BM gene expression data; conditions: in 17 tipifarnib-treated CMML subjects
# Procedure: as §1
# Four objective responses and 1 tumor lysis syndrome were reported in 17 tipifarnib-treated CMML subjects with available pre-treatment BM gene expression data. CXCL12 expression (p=0.07) and the CXCL12/CXCR4 ratio (p=0.03) were predictive of those events while IGF1 expression levels were barely detectable in these patients.
# nodal PTCL = experiment: Tipifarnib monotherapy in nodal PTCL patients with pre-treatment GEP data; conditions: 13 nodal PTCL patients
# Procedure: as §1
# The effect of CXCL12 and IGF1 was also investigated in 13 nodal PTCL patients with pre-treatment GEP data who received tipifarnib monotherapy. […] Adjusting the IGFBP7 expression to the level of IGF1R expression also identified those patients as responders to therapy.
# [2] = subset intermediate IGF1, low CXCL12
Compound,"median overall survival ([1]; 686 patients enrolled, tipifarnib 200 mg twice a day orally, gemcitabine 1,000 mg/m(2) IV, P=0.75) [days]","survival of patients not reporting versus reporting abdominal pain at study entry, within arm ([1]; FIG. 5B)","Neutropenia grade > or =3 ([1]; all patients, per arm) [%]","thrombocytopenia grade > or =3 ([1]; all patients, per arm) [%]","complete response (CR) (previously untreated AML; subset high IGF1, high CXCL12, out of 10 subjects) [patients]",complete response (CR) (previously untreated AML; [2]),progressive disease (PD) as outcome (previously untreated AML; [2]),Overall response rate (breast cancer; 76 patients treated) [%],objective response rate (breast cancer; four patients with PGR(+) and ER(−) tumors) [%],"RESPONSE (breast cancer; one line per patient, PGR(+) ER(−) population)",objective response rate (breast cancer; seven patients with PGR(+) and wild type TP53 tumors) [%],tumor lysis syndrome (CMML),partial responses (PR) (nodal PTCL)
gemcitabine [gemcitabine+placebo],182,not significantly different,30,12,,,,,,,,,
Cn1cncc1[C@@](N)(c1ccc(Cl)cc1)c1ccc2c(c1)c(-c1cccc(Cl)c1)cc(=O)n2C [tipifarnib],,,,,2,1,8,12,75,NO RESPONSE,57,1,2
